Usually IC50 stands for the concentration needed to halve the response being measured. Low values mean greater potency, high ones weaker potency.

In patent US12173007B2, “Imidazopyridazine IL-17 inhibitor compounds” (Janssen Pharmaceutica NV, priority 2021, dated 2024) one finds IC50 data, which are given here for 8 compounds.

Experiment [1] concerns IL-17A-induced G-CSF production in human normal keratinocyte (NHK). The experiment can be described thus: NHK assay: IL-17A-induced G-CSF production in normal human keratinocytes. It counts as cell-based. To be noted: Homo sapiens, Keratinocyte, 24 h, IL-17A 5 ng/mL, G-CSF by HTRF, average if tested more than once. In outline:
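Stimulus rhIL-17A 5 ng/mL final, premixed 1 h rt with compound; adult NHK, 5% FBS, 0.2% DMSO. Viability by CellTiter-Glo vs DMSO.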
(In general: TR-FRET usually uses a lanthanide donor and a delayed reading to cut background.)

For experiment [2], the target named is IL-17A(FLAG-Tagged): IL-17RA(His-Tagged) binding (Homo sapiens, UniProt Q16552, K93Q). Description: IL-17A(FLAG-tagged):IL-17RA(His-tagged) binding disruption Eu-HTRF assay, Protocol 1. To be noted: FLAG-IL-17A 2.5 nM; average if tested more than once. From the text:
IL-17A(FLAG-Tagged): IL-17RA(His-Tagged) Binding Disruption Eu-HTRF Assay
An antibody directed against the FLAG tag of IL-17A (SEQ ID NO: 1) is labeled with the HTRF donor chromophore (Europium-cryptate). IL-17A is present as a dimer that is “locked into” this quaternary structure due to the formation of loop-spanning […] disulfide bridges. The construct of IL-17RA used in the assay excludes the […] portion of the receptor and is fused to a C-terminal 10×His tag (SEQ ID NO:2). An antibody directed against the His tag of the IL-17RA chimera is labeled with the HTRF acceptor chromophore (“D2”). The fluorescence-resonance energy transfer (FRET) depends on the vicinity of the donor chromophore to the acceptor, and interruption of the binding between the IL-17A and IL-17RA causes the reduction/loss of FRET. Therefore, this assay allows to evaluate the compound effect on the binding IL-17A and IL-17RA by monitoring the fluorescence intensity of donor vs acceptor. The assay was run using either Protocol 1 or Protocol 2 as described below.
Protocol 1. 40 nl of 2-fold serial diluted compound solution for total 22 dilution points is added into each well of a 1536-well, white, low-volume, non-binding plate (Greiner #782904), then 2 μl of FLAG tagged IL-17A at 2×final concentration (2.5 nM) in solution of PBS+0.01% Triton-X100 is added to each well. The assay plate is briefly centrifuged then incubated for 1 h at rt. A mixed solution is prepared containing 2×5 nM 10HIS×IL-17RA, 2×2.5 nM Eu-anti-FLAG (CISBIO), 2×5 nM D2-anti-HIS (CISBIO) in PBS+0.01% Triton-X100+200 mM Potassium Fluoride (Sigma 60238) and 2 μl of mix is added to each well of the assay plate. The plate is briefly centrifuged then incubated for 2 h at rt. The HTRF intensities at the wavelength of donor (620 nm) and acceptor (665 nm) are measured using BMG Pherastar. The ratio between intensities at two wavelengths is calculated and plotted against the compound concentration and the data is fitted to a one-site competition model to yield IC50 of the compound.

UniProt Q16552, sequence (Q16552 with tags, fused parts or gaps K93Q): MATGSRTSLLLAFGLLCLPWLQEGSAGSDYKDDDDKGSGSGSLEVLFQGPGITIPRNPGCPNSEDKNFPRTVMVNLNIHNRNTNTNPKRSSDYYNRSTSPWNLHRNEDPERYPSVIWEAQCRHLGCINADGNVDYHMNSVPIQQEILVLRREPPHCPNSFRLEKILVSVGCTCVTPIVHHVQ

With `O=C(N[C@H](c1cn2ncc(CN3CC(F)(F)CNC3=O)cc2n1)C1CCC(F)(F)CC1)c1conc1COC(F)F` [Example 22, (S)—N-((7-((5,5-Difluoro-2-oxotetrahydropyrimidin-1(2H)-yl)methyl)imidazo[1,2-b]pyridazin-2-yl)(4,4-difluorocyclohexyl)methyl)-3-((difluoromethoxy)methyl)isoxazole-4-carboxamide], the IC50 in experiment [1] and in experiment [2] was 50 to 100 nM each time.
For `CC(C)n1ncnc1C(=O)N[C@H](c1cn2ncc(CN3CC(F)(F)CNC3=O)cc2n1)C1CCC(F)(F)CC1` [Example 23, (S)—N-((7-((5,5-Difluoro-2-oxotetrahydropyrimidin-1(2H)-yl)methyl)imidazo[1,2-b]pyridazin-2-yl)(4,4-difluorocyclohexyl)methyl)-1-isopropyl-1H-1,2,4-triazole-5-carboxamide], the IC50 in experiment [1] and in experiment [2] was greater than 100 nM in each case.
As for `O=C(N[C@H](c1cn2ncc(CN3CC(F)(F)CNC3=O)cc2n1)C1CCC(F)(F)CC1)c1cnn(CC2CC2)n1` [Example 24, (S)-2-(Cyclopropylmethyl)-N-((7-((5,5-difluoro-2-oxotetrahydropyrimidin-1(2H)-yl)methyl)imidazo[1,2-b]pyridazin-2-yl)(4,4-difluorocyclohexyl)methyl)-2H-1,2,3-triazole-4-carboxamide], the IC50 in experiment [1] and in experiment [2] was greater than 100 nM throughout.
Regarding `[2H]C([2H])([2H])C([2H])([2H])n1nccc1C(=O)N[C@H](c1cn2ncc(CN3CC(F)(F)CNC3=O)cc2n1)C1CCC(F)(F)CC1` [Example 25, (S)—N-((7-((5,5-Difluoro-2-oxotetrahydropyrimidin-1(2H)-yl)methyl)imidazo[1,2-b]pyridazin-2-yl)(4,4-difluorocyclohexyl)methyl)-1-(ethyl-d5)-1H-pyrazole-5-carboxamide], the IC50 is less than 50 nM in experiment [1] and 50 to 100 nM in experiment [2].
Take `O=C(N[C@H](c1cn2ncc(CN3CC(F)(F)CNC3=O)cc2n1)C1CCC(F)(F)CC1)c1nonc1OCC(F)F` [Example 26, (S)—N-((7-((5,5-Difluoro-2-oxotetrahydropyrimidin-1(2H)-yl)methyl)imidazo[1,2-b]pyridazin-2-yl)(4,4-difluorocyclohexyl)methyl)-4-(2,2-difluoroethoxy)-1,2,5-oxadiazole-3-carboxamide]: the IC50 in experiment [1] and in experiment [2] was less than 50 nM in each case.
For the compound `O=C(N[C@H](c1cn2ncc(CN3CC(F)(F)CNC3=O)cc2n1)C1CCC(F)(F)CC1)c1cnn(CCC(F)(F)F)n1` [Example 27, (S)—N-((7-((5,5-Difluoro-2-oxotetrahydropyrimidin-1(2H)-yl)methyl)imidazo[1,2-b]pyridazin-2-yl)(4,4-difluorocyclohexyl)methyl)-2-(3,3,3-trifluoropropyl)-2H-1,2,3-triazole-4-carboxamide], the IC50 in experiment [1] and in experiment [2] was greater than 100 nM each time.
For the compound `O=C(N[C@H](c1cn2ncc(CN3CCCCNC3=O)cc2n1)C1CCC(F)(F)CC1)c1nonc1C1CC1` [Example 30, (S)-4-Cyclopropyl-N-((4,4-difluorocyclohexyl)(7-((2-oxo-1,3-diazepan-1-yl)methyl)imidazo[1,2-b]pyridazin-2-yl)methyl)-1,2,5-oxadiazole-3-carboxamide], the IC50 was greater than 100 nM in experiment [1] and 50 to 100 nM in experiment [2].
With `CC(C)n1nccc1C(=O)N[C@H](c1cn2ncc(CN3CCCCNC3=O)cc2n1)C1CCC(F)(F)CC1` [Example 31, (S)—N-((4,4-Difluorocyclohexyl)(7-((2-oxo-1,3-diazepan-1-yl)methyl)imidazo[1,2-b]pyridazin-2-yl)methyl)-1-isopropyl-1H-pyrazole-5-carboxamide], the IC50 in experiment [1] and in experiment [2] was greater than 100 nM throughout.
